US12194004B2, “Nano-delivery carrier for targeted tumor administration and application thereof” (Guizhou Provincial People's Hospital, priority 2023, dated 2025)

Tested on: SKOV3 cells
Assay: Cell viability detection with CCK-8 detection reagent
Assay type: cell-based
Details: SKOV3 cells treated at different (increasing) concentrations for 24 h
Protocol: In order to verify whether RVT can cause death of the tumor cells, SKOV3 cells are treated with RVT at different concentrations for 24 h, and viability of the SKOV3 cells treated with RVT is detected by using a cell counting kit-8 (CCK-8) detection reagent.
In addition, the SKOV3 cells are treated with PEG-SPIO at different concentrations for 24 h, and the viability of the SKOV3 cells treated with PEG-SPIO is detected by using the CCK-8 detection reagent.
Furthermore, the SKOV3 cells are treated with RVT-encapsulated PEG-SPIO-RVT nanoparticles for 24 h, and the viability of the SKOV3 cells treated with RVT-encapsulated PEG-SPIO-RVT nanoparticles is detected by using the CCK-8 detection reagent. The results are the same as that of treating with RVT alone.

SMILES: Oc1ccc(/C=C/c2cc(O)cc(O)c2)cc1 [RVT, 3,4′,5-trihydroxy-trans-stilbene]
- viability of the SKOV3 cells: gradually shows a downward trend
